Data reported in patent EP1289507B1, “USE OF AN ALDOSTERONE ANTAGONIST FOR THE TREATMENT OR PROPHYLAXIS OF ALDOSTERONE-MEDIATED PATHOGENIC EFFECTS” (priority 2000, dated 2001).
“Also recorded” adds a separate entry of the source.

Key:
[1] = 96 hours postdose; other tissues below the limit of detection; 20 mg/kg
[2] = tested on: L-NAME/Angiotensin II/NaCl-treated rats; experiment: L-NAME/Angiotensin II/NaCl model of cardiac and renal injury (14 days); format: in vivo, Male Wistar rats
Method: Animals. Male Wistar rats (n=44), weighing 200 to 225 grams, and obtained from Charles River Laboratories (Wilmington, MA) were used in the study. All animals were housed in a room lighted 12 hours per day at an ambient temperature of 22±1°C. Animals were allowed one week to recover after arrival and had free access to Purina Lab Chow 5001 (Ralston Purina Inc, St. Louis, MO) and tap water until the initiation of the experiment. After initiation of the protocols, animals in all groups were placed in individual metabolic cages, handled and weighed daily. Twenty-four hour fluid intake, food intake and urine output were measured daily. […] On day 14 of L-NAME treatment, animals were decapitated, trunk blood was collected into chilled tubes containing ethylene diamine tetraacetic acid and the heart and kidneys were removed, blotted dry and immediately weighed. […] Drugs. Eplerenone was supplied by G.D. Searle Pharmaceuticals (St. […] Dexamethasone was dissolved in sesame oil and administered as a single subcutaneous dose (12 μg/kg/day) every day. This dose of dexamethasone has been reported to maintain normal weight gain, glomerular filtration rate, and fasting plasma glucose and insulin levels in adrenalectomized rats. Stanton, B., Giebisch G et al. J. Clin. Invest 1985 75:1317-1326. The experiment was concluded on day 14 of L-NAME treatment. […] (Hou J et al. J. Clin. Invest. 1995 96:2469-2477. […] This lower dose induced lesions in stroke-prone spontaneously hypertensive rats. (Rocha R et al. […] Dexamethasone, aldosterone and L-NAME were purchased from Sigma Chemical Co. (St. Louis, MO). […] Surgical Procedure. […] Bilateral adrenalectomy was performed using a dorsolumbar approach, making separate incisions on each side. […] No post operative deaths occurred. Assays and Analyses. Systolic blood pressure was measured in awake animals by tail-cuff plethysmography using a Natsume KN-210 manometer and tachometer (Peninsula Laboratories Inc, Belmont, CA). Rats were warmed at 37°C for 10 minutes and allowed to rest quietly in a Lucite chamber before measurement of blood pressure. Urinary protein concentration was determined in urine collected on the last day of the experiment using the sulfosalicylic acid turbidity method. […] Plasma aldosterone concentration was determined using a standard radioimmunoassay-kit from Diagnostic Products Co. (Los Angeles, CA). Plasma renin activity ("PRA") was determined by radioimmunoassay detection of generated angiotensin I (DiaSorin Inc., Stillwater, MN). Histology. Hearts were stained with collagen specific dye Sirius red for determination of fibrosis as reported elsewhere. (Young M et al. Am. J. Physiol 1995 269:[…]-[…]). Interstitial collagen was determined using an automated image analyzer. The hearts were also stained with hematoxylin and eosin for light microscopic analysis. Two or three slices of different sections of the heart containing both right and left ventricle were analyzed from each animal. […] Glomerular damage, when present, was characterized as the presence of either segmental or global sclerosis with ischemic or thrombotic changes. Renal arterial and arteriolar damage was categorized as the presence of fibrinoid necrosis of the vascular wall. The renal arterial and arteriolar profiles presenting damage were counted and the number of injured vessels per section was divided by the number of glomeruli in the same section in order to normalize for the amount of tissue examined. […] Statistical analysis. Data were tested for normality using the Kolmogorov-Smimov test. Systolic blood pressure was analyzed using repeated measures-analysis of variance for time and treatment group. One-way analysis of variance was used for normally distributed data with one grouping variable. Post-hoc analysis was performed using Newman Keuls multiple-comparison test. Data that were not normally distributed were analyzed with the Kruskal-Wallis test. Subsequently, selected pairwise comparisons were made using the exact Wilcoxon test. […]

[3] = Multiple dose tolerability and pharmacokinetic trials, Japan and Ex-Japan; format: in vivo, Japanese (Japan) and European (Ex-Japan) subjects; details: Japanese male subjects, 400 mg daily for seven days, six subjects
Method: (§1) The Ex-Japan trials included (i) a single dose tolerability trial, and (ii) a multiple dose tolerability trial, and (iii) a food effect study.
(§2) Both single dose and multiple dose tolerability trials were conducted in Japan utilizing healthy male Japanese subjects. […] Six subjects who received the 100 mg dose also participated in the food effect treatment arm of the single dose tolerability trial.
No formal statistical analyses were performed and the actual derived data is presented for comparison purposes only.
A multiple-dose safety and pharmacokinetic study among Japanese subjects was conducted in Japan. This was a single-blind, randomized, placebo-controlled study. […] Serial blood and urine samples were collected throughout the study for measurement of pharmacokinetic, renal, and hormonal parameters after a single dose on Day 1 and after seven days of dosing.

saline-drinking SHRSP = experiment: Stroke and cerebrovascular damage in saline-drinking SHRSP; format: in vivo, rats; details: 100 mg/kg/day
Description: Fifteen male, 9 weeks of age, saline-drinking SHRSP were included in the experiment.

[4] = tested on: saline-loaded adrenalectomized rats treated with aldosterone; experiment: Subcutaneous vs. oral administration: urinary Na/K in saline-loaded adrenalectomized rats treated with aldosterone; format: in vivo; details: antagonizing aldosterone-mediated renal effects
Method: Urinary sodium, potassium and water excretion were measured. The results are expressed as the ratio of excreted urinary sodium to potassium (Na/K) ± SEM.

[5] = Food effect pharmacokinetic studies, Japan and Ex-Japan; format: in vivo, Japanese (Japan) and European (Ex-Japan) subjects
Method: as §1, §2
Table A-11C contains the geometric least squares means for the fed and fasting regimens, the ratios of means and the corresponding 95% confidence intervals (CI) for the ratios of the means for the Japan and Ex-Japan food effect trials.
Each panel consisted of six subjects who were given eplerenone and two subjects who were given placebo.

[6] = tested on: aldosterone/salt uninephrectomized rats; experiment: Myocardial injury in aldosterone/salt uninephrectomized rats; format: in vivo, Sprague Dawley rats; details: eplerenone 100 mg/k/d in chow; aldosterone 0.75ug/hr, 1% NaCl
Method: Sprague Dawley rats (250 g) were uninephrectomized and provided with 1% NaCl-solution as the only source of water. The rats were then implanted with Alzet mini pump that subcutaneously delivered either aldosterone (0.75ug/hr) or vehicle. […] Blood pressure was measured by radio telemetry units implanted in abdominal aorta. Rats were sacrificed for examination of the hearts.

[7] = end of experiment, Epl 100 mg/kg/day p.o., ALDO 40 µg/kg/day in adrenalectomized rats

With COC(=O)[C@@H]1CC2=CC(=O)CC[C@]2(C)[C@@]23O[C@@H]2C[C@@]2(C)[C@@H](CC[C@@]24CCC(=O)O4)[C@H]13 [Eplerenone, Pregn-4-ene-7,21-dicarboxylic acid, 9,11-epoxy-17-hydroxy-3-oxo-, γ-lactone, methyl ester, (7α, 11α, 17β)-] as the compound, how does the “concentrations of radioactivity in cecum, kidneys, large intestine and liver” value [1] read?
Its value is “less than 0.024 µg equivalents/g”.

And the “cardiac injury (myocardial necrosis), histology” value ([2]; Figures A-3B, A-4)?
The value was “markedly reduced”.

And the HW/BW ([2]; cardiac hypertrophy index, Epl 100 mg/kg/day p.o., ALDO 40 µg/kg/day in adrenalectomized rats)?
Its HW/BW is 3.46 ± .05 mg/g.

What about the cardiac hypertrophy ([2]; compared to L-NAME/Angiotensin II/NaCl-treated rats) of the same compound?
Its cardiac hypertrophy is “significantly reduced cardiac hypertrophy”.

And the HW [2, 7]?
Its HW is 1144 ± 4 mg.

And the SBP [2, 7]?
The SBP was 177 ± 8 mmHg.

What about the “urinary protein excretion (24 hour), proteinuria” value ([2]; end of two-week treatment, Figure A-5) of the same compound?
Its value is “prevented the development of proteinuria”.

What about the “extent of hypertension observed at the end of the experiment” value ([2]; eplerenone 100 mg/kg/day p.o., Figure A-1) of the same compound?
The value was “not appreciably influenced”.

What about the “reduction in renal arteriopathy damage compared to L-NAME/AngII/NaCl treated rats” value ([2]; histopathologic scores, P=0.1 (not significant)) of the same compound?
The value was 60%.

And the adverse events [3]?
The adverse events was “mild fatigue on Day 2”.

And the proteinuria (saline-drinking SHRSP)?
The proteinuria was 38 ± 18 mg/day.

What about the “severe hypertension (SBP)” value (saline-drinking SHRSP; Figure A-12) of the same compound?
Its value is 237 ± 3 mmHg.

What about the signs of stroke (saline-drinking SHRSP; n=7) of the same compound?
Its signs of stroke is “no signs of stroke up to 18.5 weeks of age”.

And the “efficacy of subcutaneous injection vs oral administration” value [4]?
The value was “better efficacy than oral administration”.

And the “AUC (0-lqc), Mean Ratio” value ([5]; Ex-Japan Food Effect Study)?
Its value is 1.079.

And the “Cmax, Mean Ratio (fed/fasted)” value ([5]; Ex-Japan Food Effect Study)?
Its value is 0.814.

And the “AUC (0-inf), Mean Ratio” value ([5]; Japan Food Effect Study)?
The value was 1.218.

What about the “AUC (0-lqc), Mean Ratio” value ([5]; Japan Food Effect Study) of the same compound?
Its value is 1.218.

What about the “Cmax, Mean Ratio (fed/fasted)” value ([5]; Japan Food Effect Study) of the same compound?
Its value is 1.157.

And the “AUC (0-inf), Mean Ratio” value ([5]; human, in vivo)?
Its value is 1.079.

And the histopathologic myocardial damage [6]?
The histopathologic myocardial damage was “prevents the histopathologic damage; also recorded: prevents the aldosterone plus high sodium myocardial damage”.
